What was measured:
[1] = system: Salmonella typhimurium TA 98 and TA 100, Escherichia coli WP2 uvrA; settings: all strains, all tested concentrations, with and without metabolic activation
Procedure: With compound 28, its possible mutagenicity (genotoxicity) was assessed using the standard bacterial reverse mutation test. According to Council Regulation (ES) No. 440/2008, stipulating the test methods according to the European Parliament and Council regulation (ES), the method used was B.13/14, Mutagenicity—Reverse Mutation Test Using Bacteria, which is described in the same way also in the OECD Test Guideline No. 471.
[…] The experiments were conducted without using metabolic activation and after activation with supernatant S9 from […] livers and with mixtures of cofactors (NADP and glucoso-6-phosphate) to determine the mutagenicity of the metabolic products of the compound tested. Supernatant S9 was prepared according to the literature [Mutat. Res. 113, 173-215, 1983].
The principle of the test is to detect possible revertants created by reverse mutation, which would be induced in the bacterial culture by the tested compound. Specially constructed bacterial strains are used, carrying mutations in the place for his (trp), which are not capable of forming colonies on the minimum plates without histidine or tryptophan. […] Mutagenic potential is given by the growing number of revertants in the influenced groups in comparison with a negative control, and/or in dependence on the growing number of revertants on the dose of the tested compound.
Bacterial testers, types Salmonella typhimurium TA 98 (CCM 3811) and Escherichia coli WP2 uvrA (CCM 4751), were acquired from the Czech Collection of Microorganisms of Masaryk University, Brno and the strain Salmonella typhimurium TA100 (CIP 103796, lot No. 1008) from the Biological Resource Center, Institut Pasteur in Paris (CRBIP).

peritoneal cells of mice = test: Cell viability of mouse peritoneal cells (WST-1 kit); format: cell-based; settings: Table 3A, substance 50 μmol·l^−1, 24 h
In short: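 C57BL/6 mouse peritoneal cells (1×10^6/mL) cultured 24 h with compounds at 50 μmol·l^−1. Viability read with WST-1 tetrazolium salt and expressed as percent of untreated control cells (100%).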

[2] = system: acute experimental colitis in mice; test: Acute experimental colitis induced in mice by dextran sulphate sodium; format: in vivo, mice BALB/c; settings: for Therapeutical effect compared with 6-TG: acute colitis, approximately 10 mg/kg; for Course of induced acute experimental colitis: approximately 10 mg/kg by stomach probe for seven days; for Protection from severe forms of acute experimental colitis: daily oral doses of 2.5 mg/kg or 10 mg/kg
Procedure: The compounds tested were dissolved in 0.5% methylcellulose (MC, Bio-test s.r.o., Konárovice, Czech Republic; Lot: 050510BT) to acquire a final concentration of 2 mg/ml (ca 10 mg/kg). To achieve homogeneity of the suspensions, the substances in MC were disintegrated by ultrasound (sonicated; 20 s, λ=0.1 μm). Fresh suspensions were prepared every day.
The female mice of strain BALB/c at 13 weeks old were acquired from the breeding of the Institute of Physiology of the ASCR, v.v.i. Colitis was induced in them by administering a 3% solution (weight/volume) of sodium dextran sulphate (DSS, mol. weight 36-50 kDa; MP Biomedicals, Inc.) in drinking water for a period of seven days [Gastroenterology 98, 694-7, 1990]. Beginning on Day 1 of DSS administration, also a dose of the tested compound, dissolved in 100 μl MC (only a dose of methylcellulose in the case of the control animals), was administered for seven days by stomach probe.
The severity of the colitis was assessed on the last day of the experiment by scoring the clinical activity, histological parameters and measuring the length of the intestine.
The entire intestine was removed post mortem, without tightening it was placed on a ruler and measured. Shortening of the intestine is an indirect marker of infection (the shorter the intestine, the more serious the infection).
The points of the clinical activity are the sum of the individual assessments from 0 to 4 and were calculated using the following parameters: reduction of body weight (none=0 points, reduction by 1 to 5%=1 point, by 5-10%=2 points, by 10-20%=3 points, by 20%=4 points), consistency of the feces (solid=0 points; not solid, but not sticking to the anus=2 points; liquid, sticking to the anus=4 points) and bleeding (none=0 points, positive Guajak reaction=2 body, strong bleeding=4 points). This point assessment was totaled and divided by three to acquire the overall index of the activity of the disease, which was in a range from 0.0 (a healthy individual) to 4.0 (maximum activity of colitis) as described by Cooper et al. [Lab. Invest. 69, 238-49, 1993].
The descending colon was fixed in a buffered solution of 4% formaldehyde and poured into paraffin for the histological assessment. The sections were stained in hematoxylin/eosin. For every sample, four cross cuts were tested, which had been separated from one another by sections of a length of […]. The histological assessment was made for every cut by two pathologists in blind order, which provided an assessment combining the level of the infiltration of leukocytes into the layer of the lamia propria and into the submucosa along with the extent of the damage of the mucous membrane (see Table 1). The overall assessment is the average of the evaluation of the four sections, which was in a range from 0 (no signs of colitis) to 3 (severe colitis).
The differences in the intestinal length, DAI (disease activity index) and histological assessment of multiple groups were compared with the control group (MC/DSS) using a one-way analysis of the differences with a Dunnett test of multiple comparison. The differences were considered as statistically significant at P<0.05.
Compounds 28 and 51 were suspended in 0.5% methylcellulose (MC, Bio-test s.r.o., Konárovice, Czech Republic, Lot: 050510BT) to a concentration of 2 mg/ml (approximately 10 mg/kg). Sterile 0.5% MC was used as a placebo and a dose of 40 mg/each administration of 6-thioguanine (6TG) in 0.5% MC as a positive control. The administered suspensions were prepared freshly […].

[3] = system: production of prostaglandin E2 (PGE2); test: Production of prostaglandin E2 (PGE2) in cultures of mouse peritoneal cells stimulated with LPS (ELISA kit); format: cell-based, mice; settings: Table 3A, substance 50 μmol·l^−1, 6 h
In short: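 C57BL/6 mouse peritoneal cells (3×10^6/mL) stimulated with LPS (10 ng/mL). PGE2 measured by ELISA.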

Row | SMILES | Mutagenicity (reverse mutation) [1] | Cell viability in % of the controls (peritoneal cells of mice) | Therapeutical effect compared with 6-TG [2] | Course of induced acute experimental colitis [2] | Protection from severe forms of acute experimental colitis [2] | Production of prostaglandins in % of the controls [3]
1 | CCCCc1c(Cl)nc(NC=O)nc1Cl [Substance 51] | non-mutagenous | 92.15 ± 9.90 % of the controls | minimally equal with the effect of 6-TG | statistically significant reduction of the course of the induced (severe form) experimental colitis | protect mice from the severe forms of acute experimental colitis | 5.22 ± 2.66 % of the controls
2 | CCCCc1c(Cl)nc(N)nc1Cl [Substance 28] | non-mutagenous | 100.42 ± 5.77 % of the controls | minimally equal with the effect of 6-TG | statistically significant reduction of the course of the induced (severe form) experimental colitis | protect mice from the severe forms of acute experimental colitis | 13.14 ± 0.13 % of the controls

— patent US8883798B2, “Pyrimidine compounds inhibiting the formation of nitric oxide and prostaglandin E2, method of production thereof and use thereof” (Ustav Organicke Chemie a Biochemie Akademie Ved CR, V.V.I., priority 2011, dated 2014)
